Experimental data reported in paper PMC7344389, “Discovery of Anti-Amoebic Inhibitors from Screening the MMV Pandemic Response Box on Balamuthia mandrillaris, Naegleria fowleri, and Acanthamoeba castellanii” (Pathogens, 2020).
Values joined by “and” are separate entries in the source; they are usually repeats but may differ in a detail not shown here. Equal entries are not always repeated. Where two headings read alike, the source gives them in different places.

Key:
Assay type in all cases: cell-based
[1] = tested on: Balamuthia mandrillaris trophozoites; assay: CellTiter-Glo 2.0 trophocidal assay, B. mandrillaris; conditions: for IC50: CTG method, 72 h, duplicate twofold serial dilutions from 10 µM, mean ± SD; for potency against B. mandrillaris, in words: dose-response, CTG; for Selectivity Index (A549 IC50/B. mandrillaris IC50): SI = (IC50 A549)/(IC50 Amoeba)
Experimental: Pathogenic Balamuthia mandrillaris (CDC:[…]; American Type Culture Collection (ATCC) 50209), a GAE isolate, isolated from a pregnant baboon at the San Diego Zoo in 1986 was donated by Luis Fernando […] University, Mexico [43]. Trophozoites were routinely grown axenically in Balamuthia mandrillaris Itson (BMI) media at 37 °C, 5% CO2 in vented 75 cm^2 tissue culture flasks (Olympus, El Cajon, CA, USA), until the cells were 80-90% confluent. For sub-culturing, 0.25% Trypsin-EDTA (Gibco, Gaithersburg, MD, USA) cell detachment reagent was used to detach the cells from the culture flasks. The cells were collected by centrifugation at 4000 rpm at 4 °C. Complete BMI media is produced by the addition of 10% fetal bovine serum (FBS) and 125 μg of penicillin/streptomycin antibiotics. The trophocidal activity of compounds was assessed using the CellTiter-Glo 2.0 luminescent viability assay (Promega, Madison, WI, USA), as previously described. Trophozoites were routinely cultured as described above and only logarithmic trophozoites were used. […] Inhibitors were assessed for percent inhibition using the criteria of ≤33% growth inhibition (no inhibition), 33-67% growth inhibition (moderate inhibition), and ≥67% growth inhibition (strong inhibition). […] We used this process to reduce the number of potential false positives. […] All assays were incubated at each of the parasites' representative growth temperatures, described above, for 72 h. At the 72 h time point, 25 μL of CellTiter-Glo 2.0 reagent was added to all wells of the 96-well plates using the Biomek NX^P automated workstation. The plates were protected from light and contents were mixed using an orbital shaker at 300 rpm at room temperature for 2 min to induce cell lysis. After shaking, the plates were equilibrated at room temperature for 10 min to stabilize the luminescent signal. The adenosine triphosphate (ATP) luminescent signal (relative light units; RLUs) was measured at 490 nm with a SpectraMax I3X plate reader (Molecular Devices, Sunnyvale, CA, USA). Drug inhibitory concentration (IC50) curves were generated using total ATP RLUs, where controls were calculated as the average of replicates using the Levenberg-Marquardt algorithm, using DMSO as the normalization control, as defined in Collaborative Drug Discovery Inc. (CDD) Vault (Burlingame, CA, USA). Values reported are from a minimum of two biological replicates with standard deviations.

[2] = tested on: Naegleria fowleri trophozoites; assay: CellTiter-Glo 2.0 trophocidal assay, N. fowleri; conditions: CTG method, 72 h, duplicate twofold serial dilutions from 10 µM, mean ± SD; read-out: N. fowleri Mean IC50 (µM) ± SD
Experimental: Pathogenic Naegleria fowleri (ATCC 30215), a clinical isolate obtained from a child in Adelaide, Australia, that died of PAM in 1969 was previously purchased from the American Type Culture Collection (ATCC). Trophozoites were routinely grown axenically at 34 °C in Nelson’s complete medium (NCM) in non-vented 75 cm^2 tissue culture flasks (Olympus, El Cajon, CA, USA), until the cells were 80–90% confluent. For sub-culturing, cells were placed on ice to detach the cells from the culture flasks. The cells were collected by centrifugation at 4000 rpm at 4 °C. Complete NCM media is produced by the addition of 10% FBS and 125 μg of penicillin/streptomycin antibiotics.
The trophocidal activity of compounds was assessed using the CellTiter-Glo 2.0 luminescent viability assay (Promega, Madison, WI, USA), as previously described. Trophozoites were routinely cultured as described above and only logarithmic trophozoites were used. In brief, B. mandrillaris, N. fowleri, or A. castellanii trophozoites cultured in their corresponding media were seeded at 16,000, 3000, or 1440 cells/well into white 96-well plates (Costar 3370), respectively. Initially all compounds were assessed in a single-point drug screen at 10 and 1 μM, as previously described. […] Control wells were supplemented with 0.1% (10 μM screening plate) or 0.01% (1 μM screening plate) DMSO, as the negative controls, or 12.5 μM of chlorhexidine, as the positive control. Following the single-point assays at 10 and 1 µM, we prioritized compounds for progression to IC50 determinations. […] We used this process to reduce the number of potential false positives. Drugs were cherry-picked, dissolved in the media specific to each parasite, and assessed in twofold serial dilutions from the highest concentration of 10 μM. All assays were incubated at each of the parasites’ representative growth temperatures, described above, for 72 h. At the 72 h time point, 25 μL of CellTiter-Glo 2.0 reagent was added to all wells of the 96-well plates using the Biomek NX^P automated workstation. The plates were protected from light and contents were mixed using an orbital shaker at 300 rpm at room temperature for 2 min to induce cell lysis. After shaking, the plates were equilibrated at room temperature for 10 min to stabilize the luminescent signal. The adenosine triphosphate (ATP) luminescent signal (relative light units; RLUs) was measured at 490 nm with a SpectraMax I3X plate reader (Molecular Devices, Sunnyvale, CA, USA). Drug inhibitory concentration (IC50) curves were generated using total ATP RLUs, where controls were calculated as the average of replicates using the Levenberg–Marquardt algorithm, using DMSO as the normalization control, as defined in Collaborative Drug Discovery Inc. (CDD) Vault (Burlingame, CA, USA). Values reported are from a minimum of two biological replicates with standard deviations.

[3] = tested on: Acanthamoeba castellanii trophozoites; assay: CellTiter-Glo 2.0 trophocidal assay, A. castellanii; conditions: for IC50: CTG method, 72 h, duplicate twofold serial dilutions from 10 µM, mean ± SD; for potency against A. castellanii, in words: dose-response, CTG; for Selectivity Index (A549 IC50/A. castellanii IC50): SI = (IC50 A549)/(IC50 Amoeba)
Experimental: This isolate was also purchased from ATCC. Trophozoites were routinely grown axenically at 27 °C in Protease Peptone-Glucose Media (PG) in non-vented 75 cm^2 tissue culture flasks (Olympus, El Cajon, CA, USA), until the cells were 80–90% confluent. For sub-culturing, cells were mechanically harvested to detach the cells from the culture flasks. The cells were collected by centrifugation at 4000 rpm at 4 °C.
The trophocidal activity of compounds was assessed using the CellTiter-Glo 2.0 luminescent viability assay (Promega, Madison, WI, USA), as previously described. Trophozoites were routinely cultured as described above and only logarithmic trophozoites were used. […] Initially all compounds were assessed in a single-point drug screen at 10 and 1 μM, as previously described. […] We used this process to reduce the number of potential false positives. Drugs were cherry-picked, dissolved in the media specific to each parasite, and assessed in twofold serial dilutions from the highest concentration of 10 μM. All assays were incubated at each of the parasites’ representative growth temperatures, described above, for 72 h. At the 72 h time point, 25 μL of CellTiter-Glo 2.0 reagent was added to all wells of the 96-well plates using the Biomek NX^P automated workstation. The plates were protected from light and contents were mixed using an orbital shaker at 300 rpm at room temperature for 2 min to induce cell lysis. After shaking, the plates were equilibrated at room temperature for 10 min to stabilize the luminescent signal. The adenosine triphosphate (ATP) luminescent signal (relative light units; RLUs) was measured at 490 nm with a SpectraMax I3X plate reader (Molecular Devices, Sunnyvale, CA, USA). Drug inhibitory concentration (IC50) curves were generated using total ATP RLUs, where controls were calculated as the average of replicates using the Levenberg–Marquardt algorithm, using DMSO as the normalization control, as defined in Collaborative Drug Discovery Inc. (CDD) Vault (Burlingame, CA, USA). Values reported are from a minimum of two biological replicates with standard deviations.

[4] = tested on: A549 human lung carcinoma cells; assay: MTS cytotoxicity counter-screen of reconfirmed hits; conditions: MTS assay, 72 h, doubling dilutions from 10 µM, read-out: A549 Mean IC50
Experimental: Cytotoxicity of the reconfirmed hits was determined by using the CellTiter 96® AQueous One Solution Cell Proliferation Assay (Promega, Madison, WI) on A549 human lung carcinoma cells. A549 cells were seeded at a concentration of 1.6 × 10^4 cells/mL in 96-well tissue culture plates (Corning, NY, USA), in the presence of serially diluted active hits against B. mandrillaris, N. fowleri, or A. castellanii. Positive control wells contained cells and media; negative control wells contained 0.1% DMSO. Cells were grown in F12K medium supplemented with 10% FBS and 1% gentamycin (all supplied from Fisher Scientific, Atlanta, GA, USA). The inhibitor concentration started at 10 µM and was diluted in doubling dilutions to assess cytotoxicity in comparison to the respective free-living amoeba. Total volume of each well was 100 µL and plates were incubated at 37 °C, 5% CO2 for 72 h. Next, 4 h before the time-point, 20 µL of MTS (Promega, Madison, WI, USA) was added to each well. Inhibition of A549 growth was assessed at the 72 h time-point measuring the optical density (OD) values at 490 nm using a SpectraMax I3X plate reader (Molecular Devices, Sunnyvale, CA, USA). Curve fitting using non-linear regression was carried out using the average of replicates and the Levenberg–Marquardt algorithm, using DMSO as the normalization control, as defined in CDD Vault (Burlingame, CA, USA).

SMILES	IC50 [1]	IC50 [3]	IC50 [4]	IC50 ([4]; Homo sapiens, A549)	also measured
O[C@@](Cn1cnnn1)(c1ccc(F)cc1F)C(F)(F)c1ccc(-c2ccc(OCC(F)(F)F)cc2)cn1 [MMV1634386]	> 10 µM	0.16 ± 0.09 µM	> 10 µM		IC50 [2]: 2.4 ± 1.7 µM; potency against A. castellanii, in words [3]: nanomolar potency
CCc1nc(N)nc(N)c1C#CC(C)c1cc(OC)cc(-c2ccncc2)c1 (centres unmarked) [MMV1580844]	0.53 ± 0.11 µM		> 10 µM		potency against B. mandrillaris, in words [1]: nanomolar potency
Cc1ccc(N2CCC(CCOc3ccc(S(C)(=O)=O)cc3)CC2)nn1 [MMV1634394]	≤ 10 µM and 8.05 µM		> 10 µM		
O=[N+]([O-])/C(Br)=C/c1ccc(Br)o1 [Furvina]		4.2 ± 0.85 µM	> 10 µM		IC50 ([3]; listed as furvina): ≤ 10 µM
O=C1C=C(c2ccccc2)S(=O)(=O)c2ccccc21 [1,1-dioxide 1-thioflavone]	0.37 ± 0.01 µM	> 10 µM	> 10 µM		potency against B. mandrillaris, in words [1]: nanomolar potency; IC50 [2]: 5 µM
O=C(/C=C\n1cnc(-c2cc(C(F)(F)F)cc(C(F)(F)F)c2)n1)NNc1cnccn1 [Selinexor]	9.2 ± 1.13 µM			> 10 µM	IC50 ([1]; Balamuthia mandrillaris): ≤ 10 µM; Selectivity Index (A549 IC50/B. mandrillaris IC50) [1]: ≥1.09
Clc1ccc(Cn2c(CN3CCCC3)nc3ccccc32)cc1 [Clemizole]	8.95 ± 1.48 µM			> 10 µM	IC50 ([1]; Balamuthia mandrillaris): ≤ 10 µM; Selectivity Index (A549 IC50/B. mandrillaris IC50) [1]: ≥1.12
CC(=O)N1CCN(c2ccc(OCC3COC(Cn4ccnc4)(c4ccc(Cl)cc4Cl)O3)cc2)CC1 (centres unmarked) [Ketoconazole]		1.24 ± 0.8 µM		> 10 µM	IC50 ([3]; listed as ketoconazole): ≤ 10 µM
Clc1cc(Cl)c2c(c1)CCc1ccccc1C2n1ccnc1 (centres unmarked) [Eberconazole]	> 10 µM	3.7 ± 1.13 µM	> 10 µM		IC50 [2]: 1.22 ± 0.66 µM; IC50 ([3]; listed as eberconazole): ≤ 10 µM
C(=C\c1nc2ccccc2[nH]1)/c1ccc2c(c1)OCO2 [MMV1582495]	0.54 ± 0.04 µM		> 10 µM		potency against B. mandrillaris, in words [1]: nanomolar potency
Cc1nc2ccc(Oc3ccccc3)cc2c2c1CCN2CCc1ccccc1 [MMV1634399]	0.73 ± 0.28 µM		> 10 µM		potency against B. mandrillaris, in words [1]: nanomolar potency
CN1CCN(Cc2ccc(-c3cnc4[nH]cc(-c5ccc6[nH]ccc6c5)c4c3)cc2)CC1 [URMC-099-C]	5.35 ± 1.63 µM			4.2 µM	IC50 ([1]; Balamuthia mandrillaris): ≤ 10 µM; Selectivity Index (A549 IC50/B. mandrillaris IC50) [1]: 0.79
O=C(/C(=C/c1ccc(Cl)cc1Cl)n1ccnc1)c1ccc(Cl)cc1 [MMV1634491]	> 10 µM		> 10 µM		IC50 [2]: 5.15 ± 1.35 µM
CNCC(=O)OCc1cccnc1N(C)C(=O)OC(C)[n+]1cnn(C[C@](O)(c2cc(F)ccc2F)[C@@H](C)c2nc(-c3ccc(C#N)cc3)cs2)c1 (some centres unmarked) [Isavuconazonium]				> 10 µM	IC50 ([3]; Acanthamoeba castellanii): 0.09 ± 0.02 µM; Selectivity Index (A549 IC50/A. castellanii IC50) [3]: ≥105; Selectivity Index (A549 IC50/A. castellanii IC50) ([3]; listed as isavuconazonium): ≥ 10; potency against A. castellanii, in words [3]: nanomolar potency
CCC(C)(C)c1ccc(CC(C)CN2C[C@@H](C)O[C@@H](C)C2)cc1 (some centres unmarked) [Amorolfine]		1.63 ± 1.62 µM		> 10 µM	IC50 ([3]; listed as amorolfine): ≤ 10 µM; Selectivity Index (A549 IC50/A. castellanii IC50) [3]: ≥6.13
